{
  "source": "patent US20030073133A1",
  "about": "“Individualization of therapy with erectile dysfunction agents” (McGill University, priority 2001, published 2003)",
  "key": {"[1]": {"test_system": "AAMU-Ab", "assay": "Competitive antigen ELISA, cross-reactivity of AAMU-Ab", "assay_type": "binding, rabbit", "conditions": "0 = absence of inhibition or inhibition no higher than 40% at highest concentration tested (5 × 10^−3 M)", "procedure": "(§1) Competitive Antigen Elisa\n(§2) Buffers and water without additives are filtered through millipore filters and kept for 1 week. BSA, antibodies, Tween™ 20 and horse radish peroxidase conjugates are added to these buffers and water just prior to use. Urine samples are usually collected 4 hours after drinking a cup of coffee (instant or brewed with approximately 100 mg of caffeine per cup) and stored at −80° C. The urine samples are diluted 10 times with sodium phosphate buffer (620 mosm, pH 7.50) and are subsequently diluted with water to give concentrations of AAMU and 1X no higher than 3×10^−6 M in the ELISA. All the pipettings are done with an eight-channel pipette, except those of the antibody and sample solutions. Starting with the last well, 100 μL of a carbonate buffer (100 mM, pH 9.6) containing 2.5 μg mL-1 antibodies are added to each well. After 90 min. at room temperature, the wells are washed three times with 100 mL of TPB: isotonic sodium phosphate buffer (310 mosm, pH 7.50) containing 0.05% Tween™ 20.\n(§3) After the initial wash, unoccupied sites are blocked by incubation for 90 min. at room temperature with 100 μL TBP containing 3% BSA. The wells are washed four times with 100 μL TPB. The washing is followed by additions of 50 μL of 12 mg mL^−1 AAMU-HRP or 1X-HRP conjugate in 2× TPB containing 2% BSA, and 50 μL of either water, standard (13 standards; AAMU or 1X, 2×10^−4 to 2×10^−8 M) or sample in duplicate. The microplate is gently shaken with an orbital shaker at room temperature for 3-4 hours. The wells are washed three times with 100 μL TPB containing 1% BSA and three times with water containing 0.05% Tween™ 20. To the washed plate is added 150 μL of a substrate buffer composed of citric acid (25 mM) and sodium phosphate dibasic buffer (50 mM, pH 5.0) containing 0.06% hydrogen peroxide and 0.04% o-phenylenediamine hydrochloride.\nas §2, with “were” for “are”, “They were” for “The urine samples are”, “mL-^1” for “mL-1”, “was pipetted.” for “are added to each well.”, “μL” for “mL”\n(§4) After the initial wash, unoccupied sites were blocked by incubation for 90 min. at room temperature with 100 μL TBP containing 3% BSA. The wells were washed four times with 100 μL TPB. This was followed by additions of […] of 12 mg mL^−1 AAMU-HRP or 1X-HRP conjugate in 2× TPB containing 2% BSA, and 50 μL of either water, standard (13 standards; AAMU or 1X, 2×10^−4 to 2×10^−8 M) or sample in duplicate. The microplate was gently shaken with an orbital shaker at room temperature for 3-4 hours. The wells were washed three times with 100 μL with TPB containing 1% BSA and three times with water containing 0.05% Tween™ 20. To the washed plate was added 150 μL of a substrate buffer composed of citric acid (25 mM) and sodium phosphate dibasic buffer (50 mM, pH 5.0) containing 0.06% hydrogen peroxide and 0.04% o-phenylenediamine hydrochloride. After 20 min. at room temperature with shaking, the reaction was stopped with 50 μL of 2.5 N HCl.\n(§5) The cross reactivities of AAMU-Ab and 1X-Ab were tested using a wide variety of caffeine metabolites and structural analogs (Table 2 below)."}, "[2]": {"test_system": "1X-Ab", "assay": "Competitive antigen ELISA, cross-reactivity of 1X-Ab", "assay_type": "binding, rabbit", "conditions": "0 = absence of inhibition or inhibition no higher than 40% at highest concentration tested (5 × 10^−3 M)", "procedure": "as §1, §2, §3\nas §2, with “were” for “are”, “They were” for “The urine samples are”, “mL-^1” for “mL-1”, “was pipetted.” for “are added to each well.”, “μL” for “mL”\nas §4, §5"}, "[3]": {"test_system": "impotent men", "conditions": "cited from earlier work"}, "[4]": {"test_system": "poor vs. extensive metabolizers", "conditions": "cited from earlier work"}, "[5]": {"test_system": "slow and fast acetylators", "conditions": "cited from earlier work"}, "[6]": {"test_system": "individuals prescribed sildenafil", "conditions": "postmarketing; cited from earlier work"}, "[7]": {"conditions": "intracavernosal, mixed populations"}},
  "note": "Where two headings read alike, the source gives them in different places. Marks after values point to notes of the source that are not given here.",
  "data": [
    {"molecule": "Cn1c(=O)c2c(ncn2C)n(C)c1=O", "note": "[1,3,7-Trimethyl Xanthine (Caffeine), 1,3,7-Trimethyl Xanthine]", "values": [
      {"measurement": "% Cross-Reaction AAMU-Ab", "setting": "[1]", "value": 0, "unit": "%"},
      {"measurement": "% Cross-Reaction IX-Ab", "setting": "[2]", "value": 0, "unit": "%"}
    ]},
    {"molecule": "Cn1c(=O)c2[nH]cnc2n(C)c1=O", "note": "[1,3-Dimethyl Xanthine (Theophylline), 1,3-Dimethyl Xanthine]", "values": [
      {"measurement": "% Cross-Reaction AAMU-Ab", "setting": "[1]", "value": 0, "unit": "%"},
      {"measurement": "% Cross-Reaction IX-Ab", "setting": "[2]", "value": 0.2, "unit": "%"}
    ]},
    {"molecule": "Cn1c(=O)[nH]c2ncn(C)c2c1=O", "note": "[1,7-Dimethyl Xanthine (Paraxanthine), 1,7-Dimethyl Xanthine]", "values": [
      {"measurement": "% Cross-Reaction AAMU-Ab", "setting": "[1]", "value": 0, "unit": "%"},
      {"measurement": "% Cross-Reaction IX-Ab", "setting": "[2]", "value": 0.5, "unit": "%"}
    ]},
    {"molecule": "Cn1c(=O)[nH]c2[nH]c(=O)n(C)c2c1=O", "note": "[1,7-Dimethyluric acid]", "values": [
      {"measurement": "% Cross-Reaction AAMU-Ab", "setting": "[1]", "value": 0, "unit": "%"},
      {"measurement": "% Cross-Reaction IX-Ab", "setting": "[2]", "value": 0, "unit": "%"}
    ]},
    {"molecule": "Cn1c(=O)[nH]c2nc[nH]c2c1=O", "note": "[1-Methyl Xanthine (1x), 1-Methyl Xanthine]", "values": [
      {"measurement": "% Cross-Reaction AAMU-Ab", "setting": "[1]", "value": 0, "unit": "%"},
      {"measurement": "% Cross-Reaction IX-Ab", "setting": "[2]", "value": 100, "unit": "%"}
    ]},
    {"molecule": "Cn1c(=O)[nH]c2[nH]c(=O)[nH]c2c1=O", "note": "[1-Methyluric acid]", "values": [
      {"measurement": "% Cross-Reaction AAMU-Ab", "setting": "[1]", "value": 0, "unit": "%"},
      {"measurement": "% Cross-Reaction IX-Ab", "setting": "[2]", "value": 11, "unit": "%"}
    ]},
    {"molecule": "Cn1cnc2c1c(=O)[nH]c(=O)n2C", "note": "[3,7-Dimethyl Xanthine (Theobromine), 3,7-Dimethyl Xanthine]", "values": [
      {"measurement": "% Cross-Reaction AAMU-Ab", "setting": "[1]", "value": 0, "unit": "%"},
      {"measurement": "% Cross-Reaction IX-Ab", "setting": "[2]", "value": 0, "unit": "%"}
    ]},
    {"molecule": "Cn1c(=O)[nH]c(=O)c2[nH]cnc21", "note": "[3-Methyl Xanthine]", "values": [
      {"measurement": "% Cross-Reaction AAMU-Ab", "setting": "[1]", "value": 0, "unit": "%"},
      {"measurement": "% Cross-Reaction IX-Ab", "setting": "[2]", "value": 0, "unit": "%"}
    ]},
    {"molecule": "CC(=O)Nc1c(N)n(C)c(=O)n(C)c1=O", "note": "[5-Acetamino-6-amino-1,3-dimethyluracil]", "values": [
      {"measurement": "% Cross-Reaction AAMU-Ab", "setting": "[1]", "value": 0, "unit": "%"},
      {"measurement": "% Cross-Reaction IX-Ab", "setting": "[2]", "value": 0, "unit": "%"}
    ]},
    {"molecule": "CC(=O)Nc1c(N)n(C)c(=O)[nH]c1=O", "note": "[5-Acetamino-6-amino-1-methyluracil]", "values": [
      {"measurement": "% Cross-Reaction AAMU-Ab", "setting": "[1]", "value": 100, "unit": "%"},
      {"measurement": "% Cross-Reaction IX-Ab", "setting": "[2]", "value": 0, "unit": "%"}
    ]},
    {"molecule": "CC(=O)Nc1c(N)[nH]c(=O)[nH]c1=O", "note": "[5-Acetamino-6-amino-uracil]", "values": [
      {"measurement": "% Cross-Reaction AAMU-Ab", "setting": "[1]", "value": 0.6, "unit": "%"},
      {"measurement": "% Cross-Reaction IX-Ab", "setting": "[2]", "value": 0, "unit": "%"}
    ]},
    {"molecule": "Cn1cnc2[nH]c(=O)[nH]c(=O)c21", "note": "[7-Methyl Xanthine]", "values": [
      {"measurement": "% Cross-Reaction AAMU-Ab", "setting": "[1]", "value": 0, "unit": "%"},
      {"measurement": "% Cross-Reaction IX-Ab", "setting": "[2]", "value": 0, "unit": "%"}
    ]},
    {"molecule": "Cc1nc2[nH]c(=O)[nH]c(=O)c2[nH]1", "note": "[8-Methyl Xanthine]", "values": [
      {"measurement": "% Cross-Reaction AAMU-Ab", "setting": "[1]", "value": 0, "unit": "%"},
      {"measurement": "% Cross-Reaction IX-Ab", "setting": "[2]", "value": 0, "unit": "%"}
    ]},
    {"molecule": "CCCCC[C@H](O)/C=C/[C@H]1[C@H](O)CC(=O)[C@@H]1CCCCCCC(=O)O", "note": "[Alprostadil, prostaglandin E1]", "values": [
      {"measurement": "average duration of erection", "setting": "[3]; intracavernosal", "value": 64, "unit": "min"},
      {"measurement": "attempts in which erections were achieved", "setting": "[3]; [7]", "value": 87, "unit": "%"},
      {"measurement": "men who achieved erections", "setting": "[3]; [7]", "value": "Ninety-four"}
    ]},
    {"molecule": "COc1ccc2c(c1)[C@]13CCCC[C@@H]1[C@H](C2)N(C)CC3", "note": "[Dextromethorphan]", "values": [
      {"measurement": "mean performance +/−SE", "setting": "[4]; EMs (extensive metabolizers)", "value": "95+/−0.5%"},
      {"measurement": "mean performance +/−SE", "setting": "[4]; PMs (poor metabolizers)", "value": "86+/−6%"}
    ]},
    {"molecule": "Nc1nc2nc[nH]c2c(=O)[nH]1", "note": "[Guanine]", "values": [
      {"measurement": "% Cross-Reaction AAMU-Ab", "setting": "[1]", "value": 0, "unit": "%"},
      {"measurement": "% Cross-Reaction IX-Ab", "setting": "[2]", "value": 0, "unit": "%"}
    ]},
    {"molecule": "O=c1[nH]cnc2nc[nH]c12", "note": "[Hypoxanthine]", "values": [
      {"measurement": "% Cross-Reaction AAMU-Ab", "setting": "[1]", "value": 0, "unit": "%"},
      {"measurement": "% Cross-Reaction IX-Ab", "setting": "[2]", "value": 0, "unit": "%"}
    ]},
    {"molecule": "COc1ccc(Cc2nccc3cc(OC)c(OC)cc23)cc1OC", "note": "[Papaverine]", "values": [
      {"measurement": "penile fibrosis", "setting": "[3]; after 1 year of treatment", "value": "up to 60%"},
      {"measurement": "response rates", "setting": "[3]; alone or with phentolamine, mixed populations of impotent men", "value": "about 50%"},
      {"measurement": "average duration of erection", "setting": "[3]; intracavernosal", "value": 50, "unit": "min"}
    ]},
    {"molecule": "O=c1cc[nH]c(=O)[nH]1", "note": "[Uracil]", "values": [
      {"measurement": "% Cross-Reaction AAMU-Ab", "setting": "[1]", "value": 0, "unit": "%"},
      {"measurement": "% Cross-Reaction IX-Ab", "setting": "[2]", "value": 0, "unit": "%"}
    ]},
    {"molecule": "O=c1[nH]c(=O)c2[nH]c(=O)[nH]c2[nH]1", "note": "[Uric acid]", "values": [
      {"measurement": "% Cross-Reaction AAMU-Ab", "setting": "[1]", "value": 0, "unit": "%"},
      {"measurement": "% Cross-Reaction IX-Ab", "setting": "[2]", "value": 0, "unit": "%"}
    ]},
    {"molecule": "O=c1[nH]c(=O)c2[nH]cnc2[nH]1", "note": "[Xanthine]", "values": [
      {"measurement": "% Cross-Reaction AAMU-Ab", "setting": "[1]", "value": "0^a %"},
      {"measurement": "% Cross-Reaction IX-Ab", "setting": "[2]", "value": 0, "unit": "%"}
    ]},
    {"molecule": "Nc1ccc(S(=O)(=O)c2ccc(N)cc2)cc1", "note": "[dapsone, Dapsone]", "values": [
      {"measurement": "adverse reactions", "setting": "[5]; fast acetylators", "value": 17, "unit": "%"},
      {"measurement": "adverse reactions", "setting": "[5]; slow acetylators", "value": 46, "unit": "%"}
    ]},
    {"molecule": "CCCc1nn(C)c2c(=O)[nH]c(-c3cc(S(=O)(=O)N4CCN(C)CC4)ccc3OCC)nc12", "note": "[sildenafil, Sildenafil]", "values": [
      {"measurement": "deaths identified as having cardiovascular events", "setting": "[6]", "value": "Forty-six"},
      {"measurement": "deaths with definite or suspected myocardial infarction", "setting": "[6]", "value": 21},
      {"measurement": "individual deaths reported after prescription", "setting": "[6]", "value": 123}
    ]}
  ]
}
